{
  "source": "patent US20160228575A1",
  "about": "“NARINGENIN COMPLEXES AND METHODS OF USE THEREOF” (THE GENERAL HOSPITAL CORPORATION, priority 2008, published 2016)",
  "assay": "Intraperitoneal injection of naringenin to SCID mice: survival, liver enzymes, triglycerides",
  "assay_type": "in vivo",
  "procedure": "Male SCID mice (8 weeks old, 20-25 g) were obtained from Charles River Laboratories (Wilmington, Mass.). Animals were treated in accordance with NIH guidelines, and MGH Subcommittee on Research Animal Care. The mice were allowed free access to laboratory chow and water ad labium. Naringenin was dissolved in 0.5% Tween 20 diluted in saline and given by intraperitoneal injection. Two days following the treatment, animals were sacrificed and blood was withdrawn by cardiac puncture. AST and ALT enzyme levels were assessed as described above. Total triglycerides were measured using a kit purchased from Sigma-Aldrich Chemicals (St. Louis, Mo.) according to the manufacturer's instructions.\nTo assess naringenin ability to reduce circulating vLDL levels we measured total triglycerides levels in animal plasma.",
  "note": "“Also recorded” adds a separate entry of the source.",
  "data": [
    {"smiles": "O=C1C[C@@H](c2ccc(O)cc2)Oc2cc(O)cc(O)c21", "note": "[naringenin]", "values": [
      {"measurement": "ALT levels in plasma", "setting": "48 hrs following i.p. injection, all doses", "value": "no elevation"},
      {"measurement": "AST levels in plasma", "setting": "48 hrs following i.p. injection, even at the highest dose (1500 mg/kg)", "value": "under 100 U/l"},
      {"measurement": "total triglycerides in animal plasma", "setting": "following i.p. naringenin injection", "value": "decrease"},
      {"measurement": "animal survival", "setting": "intraperitoneal injection, 60, 300, 1500 mg/kg, male SCID mice", "value": "not affected; also recorded: did not cause death"}
    ]}
  ]
}
